Measured values as given in US20250277066A1, “Substituted Pyridine-2,6-Bis(Phenylenephenolate) Complexes with Enhanced Solubility that are Useful as Catalyst Components for Olefin Polymerization” (ExxonMobil Chemical Patents Inc., priority 2022, published 2025).
Values joined by “and” are separate entries in the source; they are usually repeats but may differ in a detail not shown here. Equal entries are not always repeated.

How the values were obtained:
[1] = Rapid GPC of polymers (Mn, Mw, Mz, PDI); type: physicochemical; parameters: Mn / Mw / Mz: unit not given here
Method: For analytical testing, polymer sample solutions were prepared by dissolving polymer in 1,2,4-trichlorobenzene (TCB, 99+% purity from Sigma-Aldrich) containing 2,6-di-tert-butyl-4-methylphenol (BHT, 99% from Aldrich) at 165° C. in a shaker oven for approximately 3 hours. The typical concentration of polymer in solution was between 0.1 to 0.9 mg/mL with a BHT concentration of 1.25 mg BHT/mL of TCB. Samples were cooled to 135° C. for testing.
High temperature size exclusion chromatography was performed using an automated “Rapid GPC” system as described in U.S. Pat. Nos. 6,491,816; 6,491,823; 6,475,391; 6,461,515; 6,436,292; 6,406,632; 6,175,409; 6,454,947; 6,260,407; and 6,294,388; each of which is incorporated herein by reference. Molecular weights (weight average molecular weight (Mw), number average molecular weight (Mn) and z average molecular weight (Mz)) and molecular weight distribution (MWD=Mw/Mn), which is also sometimes referred to as the polydispersity (PDI) of the polymer, were measured by Gel Permeation Chromatography using a Symyx Technology GPC equipped with evaporative light scattering detector (ELSD) and calibrated using polystyrene standards (Polymer Laboratories: Polystyrene Calibration Kit S-M-10: Mp (peak Mw) between 5,000 and 3,390,000). Alternatively, samples were measured by Gel Permeation Chromatography using a Symyx Technology GPC equipped with dual wavelength infrared detector and calibrated using polystyrene standards (Polymer Laboratories: Polystyrene Calibration Kit S-M-10: Mp (peak Mw) between 580 and 3,039,000). […] No column spreading corrections were employed. Numerical analyses were performed using Epoch® software available from Symyx Technologies or Automation Studio software available from Freeslate. The molecular weights obtained are relative to linear polystyrene standards. Molecular weight data is reported in Table 2 under the headings Mn, Mw, Mz and PDI as defined above.

[2] = Propylene polymerization (PP) in small-scale autoclave reactors: yield, quench time, catalyst activity
Text: Solutions of the pre-catalysts were made using toluene (ExxonMobil Chemical—anhydrous, stored under N2) (98%) or isohexane (ExxonMobil Chemical—polymerization grade, and purified as described below). Pre-catalyst solutions were typically 0.25 mmol/L.
Solvents, polymerization grade toluene and/or isohexanes were supplied by ExxonMobil Chemical Co. and are purified by passing through a series of columns: two 500 cc Oxyclear cylinders in series from Labclear (Oakland, Calif), followed by two 500 cc columns in series packed with dried […] (8-12 mesh; Aldrich Chemical Company), and two 500 cc columns in series packed with dried 5 Å mole sieves (8-12 mesh; Aldrich Chemical Company).
Polymerization grade propylene (C3) was used and further purified by passing it through a series of columns: 2250 cc Oxiclear cylinder from Labclear followed by a 2250 cc column packed with 3 Å mole sieves (8-12 mesh; Aldrich Chemical Company), then two 500 cc columns in series packed with 5 Å mole sieves (8-12 mesh; Aldrich Chemical Company), then a 500 cc column packed with Selexsorb CD (BASF), and finally a 500 cc column packed with Selexsorb COS (BASF).
Activation of the pre-catalysts was either by dimethylanilinium tetrakisperfluorophenylborate (Boulder Scientific or Albemarle Corp; Act ID=A) or is (hydrogenated tallow alkyl)methylammonium tetrakis(pentafluorophenyl)borate supplied as a 10 wt % solution in methylcyclohexane (Boulder Scientific; Act ID=B). Activators were typically used as a 0.25 mmol/L solution in toluene or isohexane.
Tri-n-octylaluminum (TnOAl or TNOA, Neat, AkzoNobel) was also used as a scavenger prior to introduction of the activator and pre-catalyst into the reactor. TNOA was typically used as a 5 mmol/L solution in toluene or isohexane.
Polymerizations were conducted in an inert atmosphere (N2) drybox using autoclaves equipped with an external heater for temperature control, glass inserts (internal volume of reactor=23.5 mL for C2 and C2/C8; 22.5 mL for C3 runs), septum inlets, regulated supply of nitrogen, ethylene and propylene, and equipped with disposable PEEK mechanical stirrers (800 RPM). The autoclaves were prepared by purging with dry nitrogen at 110° C. or 115° C. for 5 hours and then at 25° C. for 5 hours.
The reactor was prepared as described above, then heated to 40° C., and then purged with propylene gas at atmospheric pressure. Toluene or isohexanes, liquid propylene (1.0 mL) and scavenger (TNOA, 0.5 μmol) were added via syringe. The reactor was then brought to process temperature (70° C. or 100° C.) while stirring at 800 RPM. The activator solution, followed by the pre-catalyst solution, were injected via syringe to the reactor at process conditions. Reactor temperature was monitored and typically maintained within +/−1° C. Polymerizations were halted by addition of approximately 50 psi compressed dry air gas mixture to the autoclaves for approximately 30 seconds. The polymerizations were quenched based on a predetermined pressure loss (maximum quench value) or for a maximum of 30 minutes. The reactors were cooled and vented. The polymers were isolated after the solvent was removed in-vacuo. The actual quench time (s) is reported as quench time (s). Yields reported include total weight of polymer and residual catalyst. Catalyst activity is reported as grams of polymer per mmol transition metal compound per hour of reaction time (g/mmol·hr).
Polymerization results are collected in Tables 2 below. “Ex #” stands for example number. Example numbers starting with a “C” are comparative examples. “Cat ID” identifies the pre-catalyst used in the experiment. Corresponding numbers identifying the pre-catalyst (also referred to as pre-catalyst, catalyst, complex or compound) are located in the synthetic experimental section. T(° C.) is the polymerization temperature which was typically maintained within +/−1° C. “Yield” is polymer yield, and is not corrected for catalyst residue. […]

[3] = polymer made with activator A, T 70 ° C.
[4] = polymer made with activator A, T 100 ° C.
[5] = polymer made with activator B, T 70 ° C.
[6] = polymer made with activator B, T 100 ° C.
[7] = polypropylene made with activator A at 70° C.
[8] = polypropylene made with activator A at 100° C.
[9] = polypropylene made with activator B at 70° C.
[10] = polypropylene made with activator B at 100° C.

SMILES: Cc1cc2[n+]3c(c1)-c1ccccc1-c1cc(C(C)(C)C)cc(C45CC6CC(CC(C6)C4)C5)c1[O][Zr-]3([CH3])([CH3])[O]c1c(cc(C(C)(C)C)cc1C13CC4CC(CC(C4)C1)C3)-c1ccccc1-2 [Complex 3]
- Mn [1, 3]: 151,894 and 189,341
- Mw [1, 3]: 555,461 and 618,660
- Mz [1, 3]: 2,204,591 and 1,998,977
- PDI [1, 3]: 3.66 and 3.27
- Mn [1, 4]: 97,418 and 70,184 and 116,079
- Mw [1, 4]: 211,821 and 182,436 and 245,630
- Mz [1, 4]: 590,904 and 640,309 and 691,819
- PDI [1, 4]: 2.17 and 2.60 and 2.12
- Mn [1, 5]: 251,087 and 247,428 and 294,324
- Mw [1, 5]: 611,739 and 605,320 and 723,438
- Mz [1, 5]: 1,641,465 and 1,654,930 and 2,228,894
- PDI [1, 5]: 2.44 and 2.45 and 2.46
- Mn [1, 6]: 136,672 and 115,932 and 136,724
- Mw [1, 6]: 263,279 and 217,696 and 285,817
- Mz [1, 6]: 693,703 and 504,146 and 859,182
- PDI [1, 6]: 1.93 and 1.88 and 2.09
- Activity ([2]; activator A, T 70° C.): 1,623,360 g P/mmol cat • hr and 2,345,333 g P/mmol cat • hr
- Activity ([2]; activator B, T 70° C.): 1,030,400 g P/mmol cat • hr and 1,074,880 g P/mmol cat • hr and 1,034,182 g P/mmol cat • hr
- Activity ([2]; activator B, T 100° C.): 844,235 g P/mmol cat • hr and 476,276 g P/mmol cat • hr and 766,154 g P/mmol cat • hr

SMILES: CC(C)(C)c1cc2c(c(C34CC5CC(CC(C5)C3)C4)c1)[O][Zr-]1([CH3])([CH3])[O]c3c(cc(C(C)(C)C)cc3C34CC5CC(CC(C5)C3)C4)-c3ccccc3-c3cccc([n+]31)-c1ccccc1-2 [Complex 2]
- Mn [1, 7]: 51,771 and 73,251 and 79,137
- Mw [1, 7]: 409,655 and 422,884 and 427,915
- Mz [1, 7]: 1,643,708 and 1,794,768 and 1,704,507
- PDI ([1]; polypropylene made with activator A at 70° C., Mw/Mn): 7.91 and 5.77 and 5.41
- Mw [1, 8]: 157,755 and 118,735 and 149,968
- Mz [1, 8]: 608,816 and 547,511 and 649,731
- PDI ([1]; polypropylene made with activator A at 100° C., Mw/Mn): 3.82 and 5.79 and 4.78
- Mn [1, 9]: 142,243 and 146,842 and 153,727
- Mw [1, 9]: 528,329 and 583,343 and 515,347
- Mz [1, 9]: 1,786,121 and 2,112,818 and 1,774,716
- PDI ([1]; polypropylene made with activator B at 70° C., Mw/Mn): 3.71 and 3.97 and 3.35
- Mn [1, 10]: 63,491 and 54,833 and 47,288
- Mw [1, 10]: 180,083 and 161,679 and 169,722
- Mz [1, 10]: 621,548 and 531,840 and 733,298
- PDI ([1]; polypropylene made with activator B at 100° C., Mw/Mn): 2.84 and 2.95 and 3.59
- Activity ([2]; activator B, T 70° C.): 2,069,268 g P/mmol cat • hr and 4,201,200 g P/mmol cat • hr and 3,074,182 g P/mmol cat • hr
- Activity ([2]; activator B, T 100° C.): 2,345,000 g P/mmol cat • hr and 2,682,545 g P/mmol cat • hr and 2,225,032 g P/mmol cat • hr
